Measurements published in patent publication US20240285717A1, “COMPOSITION FOR PREVENTING OR TREATING MUSCULAR DISEASE CONTAINING PONCIRI FRUCTUS EXTRACT” (KOREA INSTITUTE OF SCIENCE AND TECHNOLOGY, priority 2023, published 2024).

Columns and labels:
C2C12 myotube cells [1] = assay: Cell viability of C2C12 myotube cells with dexamethasone-induced myoatrophy; format: cell-based, mouse; conditions: for viability of myotube cells reduced by dexamethasone treatment, by isolated compounds: each compound at 20 uM, FIG. 13
Description: Cell culture and differentiation of myoblasts: C2C12 mouse (CRL1772; American type cell collection, USA)-derived myoblasts were cultured in Dulbecco's Modified Eagle's Medium (DMEM) medium supplemented with 10 (v/v) % FBS, and after reaching 90% confluence, they were transferred to DMEM medium containing 2 (v/v) % horse serum and cultured for 7 days to differentiate into myotube cells.
After differentiating C2C12 myoblasts into myotube cells, myoatrophy was induced by treatment with 100 µM of Dexamethasone for 24 hours, and then the myoatrophy-induced myotube cells were treated with Ponciri Fructus extract (PT) at concentrations of 5, 10, and 20 ug/ml, respectively, to determine the effect of alleviating myoatrophy.
The effect of each fraction (concentrations 5 ug/ml, 10 ug/ml, 20 ug/ml, 40 ug/ml) prepared according to Example 2 on the viability of […] in which myoatrophy was induced by dexamethasone was analyzed. The assay was performed in the same manner as in Example 1.
The effect of the compounds isolated according to Example 3 (each at a concentration of 20 uM) on the viability of myotube cells in which myoatrophy was induced by dexamethasone was analyzed. The assay was performed in the same manner as in Example 1.
The assay was performed in the same manner as in Example 1.

C2C12 myotube cells [2] = assay: RT-qPCR of myotube cell differentiation and exercise performance-related gene expression in dexamethasone-treated C2C12 myotube cells; format: cell-based, mouse; conditions: auraptene treatment after dexamethasone
Description: C2C12 mouse-derived […] treated with dexamethasone 10 µM were washed twice with PBS, and total RNA was extracted according to the user-recommended protocol of an RNA extraction kit (GeneAll RNA isolation kit, Seoul, South Korea). cDNA was synthesized from the extracted RNA and subjected to real time-quantitative polymerase chain reaction (RT-qPCR). PCR analysis was performed according to the user-recommended cycling conditions of analyzer (Applied Biosystems 7900 HT thermal cycler, Applied Biosystems), and to determine the expression level of each mRNA, fold change values were calculated relative to the control, using beta-actin as an endogeneous control, and relative expression amounts were compared. The primer sequences are as follows Myf5 forward primer: TCCAGGTATTCCCACCTGCT (sequence 1), Myf5 reverse primer: CACCTGGAGCGGATGAAGAAGAAC (sequence 2); Myf6 forward primer: ACAGATCGTCGGAAAGCAGC (sequence 3), Myf6 reverse primer: CACTCCGCAGAATCTCCACC (sequence 4); Myod forward primer: CATAGACTTGACAGGCCCCG (sequence 5), Myod reverse primer: CGGGTCCAGGTCCTCAAAAA (sequence 6); Myog forward primer: AGCTATCCGGTTCCAAAGCC (sequence 7), Myog reverse primer: GCACAGGAGACCTTGGTCAG (sequence 8); Ppard forward primer: GTATGCGCATGGGACTCACT (sequence 9), Ppard reverse primer: ACTGCCTTTACCGTGGGTTT (SEQ ID NO: 10); Ppargcla forward primer: GTTGCCTGCATGAGTGTGTG (SEQ ID NO: 11), Ppargc1a reverse primer: CACATGTCCCAAGCCATCCA (SEQ ID NO: 12). As a result, the gene expressions of Myf5, Myf6, Myod and Myog, markers of myotube cell differentiation, which were decreased by dexamethasone treatment, were increased by Ponciri Fructus extract treatment, and the gene expressions of Ppard and Pgc1a, markers of motor performance, were increased by Ponciri Fructus extract treatment, as shown in FIGS. 2 and 3.
The effect of auraptene on promoting myotube cell differentiation and exercise performance-related gene expression in C2C12 myotube cells with dexamethasone-induced myoatrophy was analyzed. The assay was performed using the same method as in Example 2.

myotube cells = assay: Diameter analysis of myotube cells with dexamethasone-induced myoatrophy; format: cell-based, mouse; conditions: auraptene 5, 10, 20 uM; dexamethasone 100 uM; FIG. 15
Description: The effect of auraptene (5 uM, 10 uM, 20 uM) on the diameter of myotube cells in which myoatrophy was induced by dexamethasone (100 uM) was analyzed. The results confirmed that the diameter of myotube cells decreased by dexamethasone treatment was restored by auraptene treatment (FIG. 15).

C2C12 myotube cells [3] = assay: Oxidative stress and mitochondrial function in dexamethasone-treated C2C12 myotube cells; format: cell-based, mouse; conditions: 10 μM dexamethasone 24 hours, then auraptene; FIG. 18
Description: C2C12 myoblasts were differentiated into myotube cells as in Example 1, and then treated with 10 μM dexamethasone for 24 hours to induce oxidative stress or mitochondrial dysfunction, and then treated with auraptene to determine its efficacy in improving function.

[4] = tested on: mice with dexamethasone-induced sarcopenia; assay: Muscle force in mice with dexamethasone-induced sarcopenia; format: in vivo, C57BL/6J mice; conditions: 4 weeks
Description: (§1) C57BL/6J mice (male, 10 weeks old) were obtained from Doo-yeol Biotech, and after 2 weeks of acclimatization, they were divided into 6 test groups (n=10 per group) according to body weight. The test substance was prepared as a liquid suspension using 0.5% CMC, and the test substance was administered for 4 weeks. To compensate for the placebo effect of 0.5% CMC and the weight loss effect caused by the stress of administration, the vehicle control group was administered 0.5% CMC orally daily. Two weeks after treatment, the experimental group received an intraperitoneal injection of dexamethasone for 2 weeks to induce sarcopenia, while the normal control group received an intraperitoneal injection of saline. All mice were fed the same AIN76 diet (Research Diets) and treated with the test compound for an additional 2 weeks for a total of 4 weeks. The dark:light cycle was maintained at a 12 hr:12 hr interval and water was allowed ad libitum.
The changes in muscle force in mice were determined by the same method as in Example 3 above.

[5] = tested on: mice with dexamethasone-induced sarcopenia; assay: Weight by muscle types in mice with dexamethasone-induced sarcopenia; format: in vivo, C57BL/6J mice
Description: as §1
At the end of a total of 4 weeks of Ponciri Fructus extract administration in Example 3 above, the weight of each type of muscle tissue in all treatment groups was determined.
After a total of 4 weeks of Auraptene administration, the weight of each type of muscle tissue in all treatment groups was determined in Example 8-5 above.

[6] = auraptene 10, 50 mg/kg, 4 weeks, vs dexamethasone-treated group, FIG. 20

Compound: CC(C)=CCC/C(C)=C/COc1ccc2ccc(=O)oc2c1 [Compound 2, Auraptene]
- viability of myotube cells reduced by dexamethasone treatment, auraptene by concentration (C2C12 myotube cells [1]; 5 uM, 10 uM, 20 uM, all experimental groups, FIG. 14): restore
- viability of myotube cells reduced by dexamethasone treatment, by isolated compounds (C2C12 myotube cells [1]): excellently restore
- viability of myotube cells reduced by dexamethasone treatment, by isolated compounds (C2C12 myotube cells [1]; listed as auraptene): best effect
- Myf5 gene expression (myotube cell differentiation marker) (C2C12 myotube cells [2]; FIG. 16): increased
- Myod1 gene expression (myotube cell differentiation marker) (C2C12 myotube cells [2]; FIG. 16): increased
- Myog gene expression (myotube cell differentiation marker) (C2C12 myotube cells [2]; FIG. 16): increased
- Nrf1 gene expression (motor performance marker) (C2C12 myotube cells [2]; FIG. 17): increased
- Pparg1a gene expression (motor performance marker) (C2C12 myotube cells [2]; FIG. 17): increased
- Tomm20 gene expression (motor performance marker) (C2C12 myotube cells [2]; FIG. 17): increased
- UCP3 gene expression (motor performance marker) (C2C12 myotube cells [2]; FIG. 17): increased
- diameter of myotube cells decreased by dexamethasone treatment (myotube cells): restored
- glutathione (GSH) content (C2C12 myotube cells [3]): increased
- mitochondrial dysfunction induced by dexamethasone treatment (C2C12 myotube cells [3]): improved
- muscle force compared to the dexamethasone-treated group ([4]; auraptene 10, 50 mg/kg oral once daily, Dexamethasone 20 mg/kg 2 weeks, FIG. 19): increased
- calf muscle weight [5, 6]: significantly increased
- longissimus dorsi muscle weight [5, 6]: significantly increased
- soleus muscle weight [5, 6]: significantly increased
- thigh muscle weight [5, 6]: significantly increased

Compound: CC(C)C(=O)Cc1c(OCC2OC2(C)C)ccc2ccc(=O)oc12 (stereo not shown) [Compound 9, Isoponcimarin]
- viability of myotube cells reduced by dexamethasone treatment, by isolated compounds (C2C12 myotube cells [1]): excellently restore

Compound: O=c1ccc2ccc(O)cc2o1 [Compound 3, Umbelliferone]
- viability of myotube cells reduced by dexamethasone treatment, by isolated compounds (C2C12 myotube cells [1]): excellently restore

Compound: C/C(=C\COc1ccc2ccc(=O)oc2c1)C/C=C/C(C)(C)OO [Compound 12, 7-O-(7′-peroxygeranyl)coumarin]
- viability of myotube cells reduced by dexamethasone treatment, by isolated compounds (C2C12 myotube cells [1]): excellently restore

Compound: C[C@]12C/C(=C/O)C(=O)C[C@@H]1CC[C@@H]1[C@@H]2CC[C@@]2(C)[C@H]1CC[C@]2(C)O [Oxymetholone, reference compound]
- muscle force compared to the group treated with Dexamethasone alone ([4]; oral once daily, PT 10, 50, 100 mg/kg, Oxymetholone 50 mg/kg, Dexamethasone 20 mg/kg i.p. 2 weeks, FIGS. 4 and 5): increased
- weight of quadriceps muscle ([5]; after 4 weeks, PT 10, 50, 100 mg/kg, Oxymetholone 50 mg/kg, vs Dexamethasone group, FIG. 6): significantly increased
- weight of gastrocnemius muscle ([5]; after 4 weeks, PT 10, 50, 100 mg/kg, Oxymetholone 50 mg/kg, vs Dexamethasone group, FIG. 7): significantly increased
- weight of tibialis muscle ([5]; after 4 weeks, PT 10, 50, 100 mg/kg, Oxymetholone 50 mg/kg, vs Dexamethasone group, FIG. 8): significantly increased
